The values that follow are results of earlier work, collected in patent US11273077B2, “Wound packing material comprising chemoeffector” (priority 2015, dated 2022).

One series deals with Escherichia Coli. Conditions: Tar and Tsr receptor mediated.

For the molecule `NCCCC(=O)O` [GABA, gamma-aminobutyrate], the “specificity of chemotaxis toward intermediates of amino acid metabolism” value with Pseudomonas Aeruginosa is recorded as “high specificity”. Turning to `N[C@@H](CO)C(=O)O` [L-serine], the “ligand specificity as chemoattractant” value with Enterobacteria is reported as “high ligand specificity”. Further, the “concentration that induces E. coli chemotaxis” value with Escherichia Coli is listed as “nanomolar range”.
